# Data: patent publication US11026944B2, “Compositions and methods for treating insomnia” (Eisai R&D Management Co., Ltd., priority 2014, dated 2021)
# Tested on: subjects with insomnia
# Assay: 201 Study: polysomnography (SE, LPS, WASO) dose-response
# Format: in vivo, human
# Protocol: This was a multi-center, randomized, double-blind, adaptive design, dose-response study in subjects with insomnia. Subjects were randomized to 1 of 6 doses of compound A (1 mg, 2.5 mg, 5 mg, 10 mg, 15 mg and 25 mg) or placebo.
# The study had 2 phases: Prerandomization and Randomization. The Prerandomization Phase lasted up to 21 days and consisted of a Screening Period (Days-21 to -2) and a Baseline Period (Day-1). After the Baseline Period, all eligible subjects were randomized in a double-blind manner to receive compound A or placebo for 15 nights during the Treatment Period (Days 1 to 15). All subjects then received placebo in a single-blind manner, for 2 nights (Days 16 to 17) during the Rebound Insomnia Assessment Period (Days 16 to 18). […] All subjects came to the clinic for screening procedures. During the Screening Period, subjects completed the Sleep Diary each day. Polysomnographic sleep was measured during the Screening Period on 2 consecutive nights between Day-9 and Day-3. The 8-hour polysomnograms (PSGs) were started at the median habitual bedtime calculated from responses on the Sleep Diary, which were completed for 7 days before the first PSG night. These recordings served as both eligibility screening PSGs and as Baseline PSGs. Subjects could leave the clinic between the screening/Baseline PSG nights.
# All subjects returned to the clinic on Day-1 for Baseline Period procedures. They remained in the clinic until Day 3. Morning assessments on Day 1 provided the Baseline values for the KSS, the Digit Symbol Substitution Test (DSST), and the Reaction Time Index (RTI). Assessments at 6 hours after waketime provided the Baseline values for the Waking Function Battery (WFB), and the Profile of Mood States-Brief (POMS-B). Subjects were then randomized to receive 1 of 6 doses of compound A or placebo for the next 15 days. Study drugs were tablets containing compound A-matched placebo or compound A of 1 mg, 2.5 mg, 5 mg, or 10 mg and to be ingested 30 minutes before the median habitual bedtime calculated from their Sleep Diary responses during the Screening Period. An 8-hour PSG, starting at the same bedtime as used for the screening and Baseline PSG nights, was recorded on the first 2 treatment nights (Days 1 and 2). The Sleep Diary continued to be completed each day in the clinic, and assessments of insomnia severity (ISI), next-day residual effects (KSS, DSST, and RTI) were conducted while subjects were in the clinic. On specified study days, plasma concentrations of compound A were assessed while subjects were in the clinic in the morning after awakening and at trough just before dosing.
# Subjects continued to take compound A or placebo 30 minutes before their anticipated, self-selected bedtime and continued to complete the Sleep Diary each day while at home during the Treatment Period. On Day 14 of the Treatment Period, subjects returned to the clinic. They remained in the clinic for 4 nights and the intervening days until Day 18. Eight-hour PSGs were recorded each night in the clinic, to start at the median habitual bedtime calculated from responses on the Sleep Diary completed on Days 3 to 13. The Sleep Diary continued to be completed each day in the clinic, and the ISI, KSS, DSST, RTI, were administered at prespecified time points during the daytime hours.
# In Table 5, “Baseline” was defined as the mean of the screening PSG 1 and 2, within −9 to −3 days of randomization. “LS Means Diff” refers to the differences between LS Means of Placebo and each compound A dose, “95% CI” means to 95% CI of LS Means Diff. “p-value” was analyzed using analysis of covariance (ANCOVA) with baseline as a covariate.
# In Table 7, “Baseline” was defined as the mean of the screening PSG 1 and 2, within −9 to −3 days of randomization. “p-value” was analyzed using analysis of covariance (ANCOVA) with baseline as a covariate.
# In Table 8, “Baseline” was defined as the mean of the screening PSG 1 and 2, within −9 to −3 days of randomization. […]
smiles,measurement,setting,value
"Cc1ncc(OC[C@@]2(c3cccc(F)c3)C[C@H]2C(=O)Nc2ccc(F)cn2)c(C)n1 [Compound A, (1R,2 S)-2-(((2,4-dimethylpyrimidin-5-yl)oxy)methyl)-2-(3-fluorophenyl)-N-(5-fluoropyridin-2-yl) cyclopropanecarboxamide]","Change from Baseline in LPS, Mean of Days 1 & 2: Geometric Mean Ratio (compound A/placebo)",1 mg nightly,0.77
same,"Change from Baseline in LPS, Mean of Days 14 & 15: Geometric Mean Ratio (compound A /placebo)",1 mg nightly,0.73
same,"Change from Baseline in SE, Mean of Days 1 & 2: LS Means Diff vs placebo",1 mg nightly,4.57%
same,"Change from Baseline in SE, Mean of Days 1 & 2: Mean",1 mg nightly,21.1%
same,"Change from Baseline in SE, Mean of Days 14 & 15: LS Means Diff vs placebo",1 mg nightly,0.34%
same,"Change from Baseline in SE, Mean of Days 14 & 15: Mean",1 mg nightly,17.5%
same,"Change from Baseline in WASO, Mean of Days 1 & 2: LS Means Diff vs placebo",1 mg nightly,-11.1 min
same,"Change from Baseline in WASO, Mean of Days 1 & 2: Mean",1 mg nightly,-60.9 min
same,"Change from Baseline in WASO, Mean of Days 14 & 15: LS Means Diff vs placebo",1 mg nightly,5.7 min
same,"Change from Baseline in WASO, Mean of Days 14 & 15: Mean",1 mg nightly,-43.6 min
same,"LPS geometric mean ratio vs placebo, significance","1 mg, Mean of Days 1/2",not statistically significant
same,"Change from Baseline in LPS, Mean of Days 1 & 2: Geometric Mean Ratio (compound A/placebo)",2.5 mg nightly,0.55
same,"Change from Baseline in LPS, Mean of Days 14 & 15: Geometric Mean Ratio (compound A /placebo)",2.5 mg nightly,0.49
same,"Change from Baseline in SE, Mean of Days 1 & 2: LS Means Diff vs placebo",2.5 mg nightly,4.44%
same,"Change from Baseline in SE, Mean of Days 1 & 2: Mean",2.5 mg nightly,21.3%
same,"Change from Baseline in SE, Mean of Days 14 & 15: LS Means Diff vs placebo",2.5 mg nightly,3.94%
same,"Change from Baseline in SE, Mean of Days 14 & 15: Mean",2.5 mg nightly,20.7%
same,"Change from Baseline in WASO, Mean of Days 1 & 2: LS Means Diff vs placebo",2.5 mg nightly,-2.3 min
same,"Change from Baseline in WASO, Mean of Days 1 & 2: Mean",2.5 mg nightly,-51.1 min
same,"Change from Baseline in WASO, Mean of Days 14 & 15: LS Means Diff vs placebo",2.5 mg nightly,-2.3 min
same,"Change from Baseline in WASO, Mean of Days 14 & 15: Mean",2.5 mg nightly,-48.9 min
same,"Change from Baseline in LPS, Mean of Days 1 & 2: Geometric Mean Ratio (compound A/placebo)",5 mg nightly,0.60
same,"Change from Baseline in LPS, Mean of Days 14 & 15: Geometric Mean Ratio (compound A /placebo)",5 mg nightly,0.47
same,"Change from Baseline in SE, Mean of Days 1 & 2: LS Means Diff vs placebo",5 mg nightly,5.74%
same,"Change from Baseline in SE, Mean of Days 1 & 2: Mean",5 mg nightly,21.2%
same,"Change from Baseline in SE, Mean of Days 14 & 15: LS Means Diff vs placebo",5 mg nightly,5.76%
same,"Change from Baseline in SE, Mean of Days 14 & 15: Mean",5 mg nightly,21.0%
same,"Change from Baseline in WASO, Mean of Days 1 & 2: LS Means Diff vs placebo",5 mg nightly,-11.3 min
same,"Change from Baseline in WASO, Mean of Days 1 & 2: Mean",5 mg nightly,-55.6 min
same,"Change from Baseline in WASO, Mean of Days 14 & 15: LS Means Diff vs placebo",5 mg nightly,-10.7 min
same,"Change from Baseline in WASO, Mean of Days 14 & 15: Mean",5 mg nightly,-52.2 min
same,"LPS, Days 1/2 compared to Days 14/15",10 mg,further improvement in LPS over time
same,"Change from Baseline in LPS, Mean of Days 1 & 2: Geometric Mean Ratio (compound A/placebo)",10 mg nightly,0.54
same,"Change from Baseline in LPS, Mean of Days 14 & 15: Geometric Mean Ratio (compound A /placebo)",10 mg nightly,0.32
same,"Change from Baseline in SE, Mean of Days 1 & 2: LS Means Diff vs placebo",10 mg nightly,8.09%
same,"Change from Baseline in SE, Mean of Days 1 & 2: Mean",10 mg nightly,21.9%
same,"Change from Baseline in SE, Mean of Days 14 & 15: LS Means Diff vs placebo",10 mg nightly,7.78%
same,"Change from Baseline in SE, Mean of Days 14 & 15: Mean",10 mg nightly,21.7%
same,"Change from Baseline in WASO, Mean of Days 1 & 2: LS Means Diff vs placebo",10 mg nightly,-19.8 min
same,"Change from Baseline in WASO, Mean of Days 1 & 2: Mean",10 mg nightly,-56.7 min
same,"Change from Baseline in WASO, Mean of Days 14 & 15: LS Means Diff vs placebo",10 mg nightly,-14.7 min
same,"Change from Baseline in WASO, Mean of Days 14 & 15: Mean",10 mg nightly,-48.5 min
same,"Change from Baseline in LPS, Mean of Days 1 & 2: Geometric Mean Ratio (compound A/placebo)",15 mg nightly,0.52
same,"Change from Baseline in LPS, Mean of Days 14 & 15: Geometric Mean Ratio (compound A /placebo)",15 mg nightly,0.41
same,"Change from Baseline in SE, Mean of Days 1 & 2: LS Means Diff vs placebo",15 mg nightly,10.06%
same,"Change from Baseline in SE, Mean of Days 1 & 2: Mean",15 mg nightly,23.8%
same,"Change from Baseline in SE, Mean of Days 14 & 15: LS Means Diff vs placebo",15 mg nightly,7.89%
same,"Change from Baseline in SE, Mean of Days 14 & 15: Mean",15 mg nightly,21.2%
